biological target: T1, human GPR119 (Homo sapiens, UniProt Q8TDV5); assay: AlphaScreen cAMP assay in Min-6/hGPR119 cells (activation of GPR119, intracellular cAMP); format: cell-based; conditions: MIN6 cells stably transfected with human GPR119; cAMP by AlphaScreen after 45 minutes incubation at room temperature
T1 construct: expression vector for human GPR119 cDNA (Acc. No. NP_848566); expressed in transfected cells
T1 sequence (Q8TDV5 1-335): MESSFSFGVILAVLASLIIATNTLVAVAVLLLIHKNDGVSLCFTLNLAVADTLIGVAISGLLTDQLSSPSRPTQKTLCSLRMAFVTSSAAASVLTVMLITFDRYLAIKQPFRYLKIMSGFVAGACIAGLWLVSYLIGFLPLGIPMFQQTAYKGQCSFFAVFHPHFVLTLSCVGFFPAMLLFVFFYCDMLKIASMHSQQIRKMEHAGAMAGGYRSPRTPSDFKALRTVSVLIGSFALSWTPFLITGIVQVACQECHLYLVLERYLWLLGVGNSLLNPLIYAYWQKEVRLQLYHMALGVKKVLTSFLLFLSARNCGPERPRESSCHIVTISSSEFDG
Experimental: The compounds of formula I according to the invention modulate the activity of the G-protein-coupled receptor GPR119. The effect of the compounds on the activation of GPR119 and on the stimulation of intracellular cAMP concentration is determined using the AlphaScreen cAMP Assay Kit (Cat.No.#6760625R) made by PerkinElmer.
MIN6 cells [Miyazaki J et al. Endocrinology. 1990 July; 127(1):126-32] are stably transfected with an expression vector for human GPR119 cDNA (Acc. No. NP_848566). Min-6/hGPR119 cells are cultured in DMEM, 10% FBS, 50 μM β-mercaptoethanol, 0.3 mg/mL Geniticin, 2 mM GlutaMAX at 37° C. 5% CO2. For the assay, the cells are seeded in Optiplates (white, 384-well, 160W— barcoded, TC, sterile with lid, Cat.No.#6007688 (Perkin Elmer); 10000 cells/well; 50 μl). The plates covered with lids are then incubated for 24 hours at 37° C./5% CO2. After the medium is aspirated from the wells completely, 10 μl of the test compound are added, the compounds are diluted using stimulating buffer (140 mM NaCl, 3.6 mM KCl, 0.5 mM NaH2PO4, 0.5 mM MgSO4, 1.5 mM CaCl2, 10 mM Hepes, 5 mM NaHCO3; pH 7.4. 0.5 mM IBMX and 0.1% BSA, the final DMSO concentration is 1%). After 45 minutes incubation at room temperature (approx. 20° C.), the cAMP concentrations are determined using the AlphaScreen cAMP Assay Kit (Cat.No.#6760625R from PerkinElmer).

Row | EC50 | SMILES
1 | 14 nM | CC(C)(C)OC(=O)N1CCC(C2Cc3cc(-c4ccc(CS(C)(=O)=O)cc4F)ncc3O2)CC1 (single isomer, unassigned) [Example 75]
2 | 55 nM | CC(C)(C)OC(=O)N1CCC(C2Cc3cc(-c4ccc(CS(C)(=O)=O)cc4F)ncc3O2)CC1 (single isomer, unassigned) [Example 76]
3 | 32 nM | CC(C)OC(=O)N1CCC(C2Cc3cc(-c4ccc(S(C)(=O)=O)cc4)ccc3O2)CC1 (centres unmarked) [Example 1, 4-[5-(4-Methanesulfonyl-phenyl)-2,3-dihydro-benzofuran-2-yl]-piperidine-1-carboxylic acid isopropyl ester]
4 | 71 nM | CC(C)OC(=O)N1CCC(C2Cc3cc(-c4ccc(S(C)(=O)=O)nc4)ccc3O2)CC1 (centres unmarked) [Example 2, 4-[5-(6-Methanesulfonyl-pyridin-3-yl)-2,3-dihydro-benzofuran-2-yl]-piperidine-1-carboxylic acid isopropyl ester]
5 | 39 nM | CC(C)OC(=O)N1CCC(C2Cc3cc(-c4ccc(S(C)(=O)=O)cn4)ccc3O2)CC1 (centres unmarked) [Example 3, 4-[5-(5-Methanesulfonyl-pyridin-2-yl)-2,3-dihydro-benzofuran-2-yl]-piperidine-1-carboxylic acid isopropyl ester]
6 | 198 nM | CC(C)OC(=O)N1CCC(C2Cc3cc(-c4ccc(C#N)cc4)ccc3O2)CC1 (centres unmarked) [Example 4, 4-[5-(4-Cyano-phenyl)-2,3-dihydro-benzofuran-2-yl]-piperidine-1-carboxylic acid isopropyl ester]
7 | 18 nM | CS(=O)(=O)c1ccc(-c2ccc3c(c2)CC(C2CCN(C(=O)OC4CCC4)CC2)O3)cc1 (centres unmarked) [Example 5, 4-[5-(4-Methanesulfonyl-phenyl)-2,3-dihydro-benzofuran-2-yl]-piperidine-1-carboxylic acid cyclobutyl ester]
8 | 228 nM | Cc1cc(C#N)cnc1-c1ccc2c(c1)CC(C1CCN(C(=O)OC(C)C)CC1)O2 (centres unmarked) [Example 8, 4-[5-(5-Cyano-3-methyl-pyridin-2-yl)-2,3-dihydro-benzofuran-2-yl]-piperidine-1-carboxylic acid isopropyl ester]
9 | 432 nM | Cc1cc(-c2ccc3c(c2)CC(C2CCN(C(=O)OC(C)C)CC2)O3)cnc1C#N (centres unmarked) [Example 9, 4-[5-(6-Cyano-5-methyl-pyridin-3-yl)-2,3-dihydro-benzofuran-2-yl]-piperidine-1-carboxylic acid isopropyl ester]
10 | 121 nM | Cc1cc(S(C)(=O)=O)ccc1-c1ccc2c(c1)CC(C1CCN(C(=O)OC(C)C)CC1)O2 (centres unmarked) [Example 10, 4-[5-(4-Methanesulfonyl-2-methyl-phenyl)-2,3-dihydro-benzofuran-2-yl]-piperidine-1-carboxylic acid isopropyl ester]
11 | 299 nM | Cc1cc([S+](C)[O-])ccc1-c1ccc2c(c1)CC(C1CCN(C(=O)OC(C)C)CC1)O2 (centres unmarked) [Example 11, 4-[5-(4-Methanesulfinyl-2-methyl-phenyl)-2,3-dihydro-benzofuran-2-yl]-piperidine-1-carboxylic acid isopropyl ester]
12 | 253 nM | CC(C)(C)OC(=O)N1CCC(C2Cc3nc(-c4ccc(S(C)(=O)=O)cc4)cnc3O2)CC1 (centres unmarked) [Example 12, 4-[2-(4-Methanesulfonyl-phenyl)-6,7-dihydro-furo[2,3-b]byrazin-6-yl]-piperidine-1-carboxylic acid tert-butyl ester]
13 | 214 nM | CC(C)(C)OC(=O)N1CCC(C2Cc3nc(-c4ccc(S(C)(=O)=O)cc4)ccc3O2)CC1 (centres unmarked) [Example 13, 4-[5-(4-Methanesulfonyl-phenyl)-2,3-dihydro-furo[3,2-b]pyridin-2-yl]-piperidine-1-carboxylic acid tert-butyl ester]
14 | 13 nM | CC(C)(C)OC(=O)N1CCC(C2Cc3cc(-c4ccc(S(C)(=O)=O)cn4)ccc3O2)CC1 (centres unmarked) [Example 14, 4-[5-(5-Methanesulfonyl-pyridin-2-yl)-2,3-dihydro-benzofuran-2-yl]-piperidine-1-carboxylic acid tert-butyl ester]
15 | 9 nM | CC(C)(C)OC(=O)N1CCC(C2Cc3cc(-c4ccc(S(C)(=O)=O)cc4)ncc3O2)CC1 (centres unmarked) [Example 15, 4-[5-(4-Methanesulfonyl-phenyl)-2,3-dihydro-furo[2,3-c]pyridin-2-yl]-piperidine-1-carboxylic acid tert-butyl ester]
16 | 186 nM | CC(C)OC(=O)N1CCC(C2Cc3cc(-c4cncnc4)ccc3O2)CC1 (centres unmarked) [Example 16, 4-(5-Pyrimidin-5-yl-2,3-dihydro-benzofuran-2-yl)-piperidine-1-carboxylic acid isopropyl ester]
17 | 46 nM | CC1(OC(=O)N2CCC(C3Cc4cc(-c5ccc(S(C)(=O)=O)cc5)ccc4O3)CC2)CC1 (centres unmarked) [Example 17, 4-[5-(4-Methanesulfonyl-phenyl)-2,3-dihydro-benzofuran-2-yl]-piperidine-1-carboxylic acid 1-methyl-cyclopropyl ester]
18 | 147 nM | Cc1nc(S(C)(=O)=O)ccc1-c1ccc2c(c1)CC(C1CCN(C(=O)OC(C)C)CC1)O2 (centres unmarked) [Example 18, 4-[5-(6-Methanesulfonyl-2-methyl-pyridin-3-yl)-2,3-dihydro-benzofuran-2-yl]-piperidine-1-carboxylic acid isopropyl ester]
19 | 1000 nM | Cc1cc(S(C)(=O)=O)ncc1-c1ccc2c(c1)CC(C1CCN(C(=O)OC(C)C)CC1)O2 (centres unmarked) [Example 19, 4-[5-(6-Methanesulfonyl-4-methyl-pyridin-3-yl)-2,3-dihydro-benzofuran-2-yl]-piperidine-1-carboxylic acid isopropyl ester]
20 | 17 nM | CC1(OC(=O)N2CCC(C3Cc4cc(-c5ccc(S(C)(=O)=O)cc5)ncc4O3)CC2)CC1 (centres unmarked) [Example 20, 4-[5-(4-Methanesulfonyl-phenyl)-2,3-dihydro-furo[2,3-c]pyridin-2-yl]-piperidine-1-carboxylic acid 1-methyl-cyclopropyl ester]
21 | 77 nM | CC(C)(C)OC(=O)N1CCC(C2Cc3cc(-c4cnco4)ccc3O2)CC1 (centres unmarked) [Example 21, 4-(5-Oxazol-5-yl-2,3-dihydro-benzofuran-2-yl)-piperidine-1-carboxylic acid tert-butyl ester]
22 | 45 nM | CC(C)(C)OC(=O)N1CCC(C2Cc3nc(-c4ccc(S(C)(=O)=O)cc4)ncc3O2)CC1 (centres unmarked) [Example 22, 4-[2-(4-Methanesulfonyl-phenyl)-6,7-dihydro-furo[3,2-d]pyrimidin-6-yl]-piperidine-1-carboxylic acid tert-butyl ester]
23 | 18 nM | CC(C)(C)OC(=O)N1CCC(C2Cc3cc(-c4ccc(S(C)(=O)=O)cc4F)ncc3O2)CC1 (centres unmarked) [Example 23, 4-[5-(2-Fluoro-4-methanesulfonyl-phenyl)-2,3-dihydro-furo[2,3-c]pyridin-2-yl]-piperidine-1-carboxylic acid tert-butyl ester]
24 | 17 nM | CS(=O)(=O)c1ccc(-c2cc3c(cn2)OC(C2CCN(C(=O)OC4CCC4)CC2)C3)cc1 (centres unmarked) [Example 24, 4-[5-(4-Methanesulfonyl-phenyl)-2,3-dihydro-furo[2,3-c]pyridin-2-yl]-piperidine-1-carboxylic acid cyclobutyl ester]
25 | 88 nM | CC(C)(C)OC(=O)N1CCC(C2Cc3cc(-c4ccc(C(N)=O)cc4F)ncc3O2)CC1 (centres unmarked) [Example 26, 4-[5-(4-Carbamoyl-2-fluoro-phenyl)-2,3-dihydro-furo[2,3-c]pyridin-2-yl]-piperidine-1-carboxylic acid tert-butyl ester]
26 | 24 nM | CNC(=O)c1ccc(-c2cc3c(cn2)OC(C2CCN(C(=O)OC(C)(C)C)CC2)C3)c(F)c1 (centres unmarked) [Example 27, 4-[5-(2-Fluoro-4-methylcarbamoyl-phenyl)-2,3-dihydro-furo[2,3-c]pyridin-2-yl]-piperidine-1-carboxylic acid tert-butyl ester]
27 | 23 nM | CC(C)(C)OC(=O)N1CCC(C2Cc3cc(-c4ccc(C#N)c(F)c4)ncc3O2)CC1 (centres unmarked) [Example 28, 4-[5-(4-Cyano-3-fluoro-phenyl)-2,3-dihydro-furo[2,3-c]hyridin-2-yl]-piperidine-1-carboxylic acid tert-butyl ester]
28 | 12 nM | CC(C)(C)OC(=O)N1CCC(C2Cc3cc(-c4ccc(C#N)cc4F)ncc3O2)CC1 (centres unmarked) [Example 29, 4-[5-(4-Cyano-2-fluoro-phenyl)-2,3-dihydro-furo[2,3-c]pyridin-2-yl]-piperidine-1-carboxylic acid tert-butyl ester]
29 | 84 nM | CC(C)(C)OC(=O)N1CCC(C2Cc3cc(-c4ccc(S(N)(=O)=O)cc4)ncc3O2)CC1 (centres unmarked) [Example 30, 4-[5-(4-Sulfamoyl-phenyl)-2,3-dihydro-furo[2,3-c]pyridin-2-yl]-piperidine-1-carboxylic acid tert-butyl ester]

Reference: patent publication US8669271B2 (Boehringer Ingelheim International GmbH, priority 2010, dated 2014)
